Laboratory results: patent US20260130921A1, “TREATMENT OF VIRAL INFECTIONS WITH COMBINATION OF PIKFYVE KINASE INHIBITORS AND TMPRSS-2 INHIBITORS” (AcuraStem Incorporated, priority 2020, published 2026)

Molecular target: PIKFYVE (Homo sapiens, UniProt Q9Y2I7)
Experiment: PIKFYVE assay (luciferase ADP-Glo kinase assay, Promega)
Type: biochemical
Details: Table 2
Protocol: The activity of Compounds 1-20 was measured using a PIKFYVE assay (luciferase ADP-Glo kinase assay available from Promega Corp. of Madison, WI).
The activity of Compounds 39-90 was also measured using a PIKFYVE assay (luciferase ADP-Glo kinase assay available from Promega Corp. of Madison, WI).

Sequence of PIKFYVE (Q9Y2I7 whole entry): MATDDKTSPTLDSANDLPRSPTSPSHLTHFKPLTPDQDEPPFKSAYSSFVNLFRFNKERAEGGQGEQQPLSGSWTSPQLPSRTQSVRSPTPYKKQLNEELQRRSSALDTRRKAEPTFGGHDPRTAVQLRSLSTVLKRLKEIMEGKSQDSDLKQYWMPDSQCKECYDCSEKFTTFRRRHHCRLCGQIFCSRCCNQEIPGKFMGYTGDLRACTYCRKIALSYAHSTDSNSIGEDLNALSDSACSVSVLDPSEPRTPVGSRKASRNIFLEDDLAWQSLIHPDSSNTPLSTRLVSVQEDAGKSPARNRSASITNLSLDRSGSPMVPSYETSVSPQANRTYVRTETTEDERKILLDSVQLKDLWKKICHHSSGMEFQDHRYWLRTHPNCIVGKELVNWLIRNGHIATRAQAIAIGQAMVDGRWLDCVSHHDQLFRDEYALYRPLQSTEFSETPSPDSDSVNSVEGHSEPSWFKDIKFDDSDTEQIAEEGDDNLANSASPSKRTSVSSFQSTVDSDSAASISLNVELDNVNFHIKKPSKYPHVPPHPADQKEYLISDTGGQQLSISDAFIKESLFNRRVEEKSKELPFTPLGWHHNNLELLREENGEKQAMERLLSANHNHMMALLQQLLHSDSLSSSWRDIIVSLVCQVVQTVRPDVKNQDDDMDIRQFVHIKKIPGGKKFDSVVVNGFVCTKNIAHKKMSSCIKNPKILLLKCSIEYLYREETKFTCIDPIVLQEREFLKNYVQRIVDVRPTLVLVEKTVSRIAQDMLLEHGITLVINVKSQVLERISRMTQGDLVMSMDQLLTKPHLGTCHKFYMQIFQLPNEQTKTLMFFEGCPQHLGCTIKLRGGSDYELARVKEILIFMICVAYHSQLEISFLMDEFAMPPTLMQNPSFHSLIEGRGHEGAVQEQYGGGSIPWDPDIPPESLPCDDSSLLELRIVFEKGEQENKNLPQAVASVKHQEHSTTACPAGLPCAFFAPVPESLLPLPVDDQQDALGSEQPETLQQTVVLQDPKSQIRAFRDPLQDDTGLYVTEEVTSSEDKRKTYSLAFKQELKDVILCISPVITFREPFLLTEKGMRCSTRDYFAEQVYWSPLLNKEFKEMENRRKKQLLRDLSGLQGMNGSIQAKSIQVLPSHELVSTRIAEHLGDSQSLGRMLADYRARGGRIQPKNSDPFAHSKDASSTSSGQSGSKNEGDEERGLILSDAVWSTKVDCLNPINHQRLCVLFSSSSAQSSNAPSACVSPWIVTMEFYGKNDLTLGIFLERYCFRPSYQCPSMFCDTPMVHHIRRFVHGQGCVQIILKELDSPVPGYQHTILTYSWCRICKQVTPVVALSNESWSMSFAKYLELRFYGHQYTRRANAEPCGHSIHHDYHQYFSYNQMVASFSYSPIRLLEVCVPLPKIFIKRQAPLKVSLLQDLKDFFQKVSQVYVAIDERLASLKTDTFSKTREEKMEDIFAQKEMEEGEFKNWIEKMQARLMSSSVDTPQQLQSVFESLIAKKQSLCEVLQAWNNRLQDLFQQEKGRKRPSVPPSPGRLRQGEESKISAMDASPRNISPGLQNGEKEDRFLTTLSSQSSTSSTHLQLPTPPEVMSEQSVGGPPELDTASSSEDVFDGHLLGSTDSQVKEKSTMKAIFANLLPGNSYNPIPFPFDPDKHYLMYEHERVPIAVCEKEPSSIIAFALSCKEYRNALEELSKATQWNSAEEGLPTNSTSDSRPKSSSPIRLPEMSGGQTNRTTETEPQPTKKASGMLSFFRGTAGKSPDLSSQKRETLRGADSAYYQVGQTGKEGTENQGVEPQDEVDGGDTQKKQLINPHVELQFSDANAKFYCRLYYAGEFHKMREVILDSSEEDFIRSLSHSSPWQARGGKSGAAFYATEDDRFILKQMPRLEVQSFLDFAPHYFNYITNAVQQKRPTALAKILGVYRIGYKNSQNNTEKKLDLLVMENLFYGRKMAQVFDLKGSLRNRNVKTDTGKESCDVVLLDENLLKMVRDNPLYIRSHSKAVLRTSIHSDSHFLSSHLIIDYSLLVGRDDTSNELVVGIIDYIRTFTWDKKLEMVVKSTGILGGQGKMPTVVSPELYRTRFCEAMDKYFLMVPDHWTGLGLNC

Row | IC50 | Structure (SMILES)
1 | < 10000 nM | c1ccc(-c2cn(-c3cc(N4CCOCC4)nc(OCCc4ccccn4)n3)cn2)cc1 [Compound 39]
2 | < 500 nM | Clc1ccc(-c2ccn(-c3cc(N4CCOCC4)nc(OCCc4ccccn4)n3)n2)cc1 [Compound 40]
3 | < 10000 nM | Fc1ccc(-c2cnn(-c3cc(N4CC[C@H]5OCC[C@H]54)nc(CCCc4ccccn4)n3)c2)cc1 [Compound 41]
4 | < 500 nM | Cc1cccc(-c2ccn(-c3cc(N4CCOCC4)nc(Cc4ccccc4)n3)n2)c1 [Compound 42]
5 | < 500 nM | c1cc(-c2cc(N3CCOCC3)nc(OCC3CCCO3)n2)n[nH]1 (stereo not shown) [Compound 45]
6 | < 50 nM | Cc1cccc(-c2ccn(-c3nc(NCCc4ccccn4)cc(N4CCOCC4)n3)n2)c1 [Compound 46]
7 | < 50 nM | Cc1cccc(-c2ccn(-c3nc(NCCc4cnccn4)cc(N4CCOCC4)n3)n2)c1 [Compound 47]
8 | < 500 nM | Cc1cccc(-c2ccn(-c3cc(N4CC[C@H]5OCC[C@H]54)nc(C(O)CO)n3)n2)c1 (stereo partly shown) [Compound 48]
9 | < 50 nM | COCC(O)c1nc(N2CCOCC2)cc(-n2ccc(-c3cccc(C)c3)n2)n1 (stereo not shown) [Compound 49]
10 | < 10000 nM | CC(C)(C)c1ccn(-c2cc(N3CCOCC3)nc(OCC(O)CO)n2)n1 (stereo not shown) [Compound 51]
11 | < 500 nM | OCC(O)COc1nc(N2CCOCC2)cc(-n2cc3ccccc3n2)n1 (stereo not shown) [Compound 52]
12 | < 500 nM | OCC(O)COc1nc(N2CCOCC2)cc(-n2ncc3ccccc32)n1 (stereo not shown) [Compound 53]
13 | < 5 nM | Cc1cccc(-c2ccn(-c3cc(N4CCOCC4)nc(OC[C@@H](O)c4ccccc4)n3)n2)c1 [Compound 57]
14 | < 5 nM | Cc1cccc(-c2ccn(-c3cc(N4CCOCC4)nc(OC[C@H](O)c4ccccc4)n3)n2)c1 [Compound 58]
15 | < 50 nM | COc1nc(N2CCOCC2)cc(-n2ccc(-c3cccc(C)c3)n2)n1 [Compound 59]
16 | < 500 nM | Cc1cccc(-c2ccn(-c3cc(N4CCOCC4)ncn3)n2)c1 [Compound 60]
17 | < 50 nM | Cc1cccc(-c2ccn(-c3cc(N4CCOCC4)nc(N4CCCC4=O)n3)n2)c1 [Compound 61]
18 | < 500 nM | Cc1cn(-c2cc(N3CCOCC3)nc(OCCc3cnn(C)c3)n2)nc1-c1ccccc1 [Compound 63]
19 | < 50 nM | COCc1nc(N2CCOCC2)cc(-n2ccc(-c3ccccc3)n2)n1 [Compound 69]
20 | < 50 nM | CCOC(=O)c1ccn(-c2cc(N3CCOCC3)nc(OCCc3ccn(C)n3)n2)n1 [Compound 70]
21 | < 50 nM | CN(C)Cc1cc(-c2ccccc2)nn1-c1cc(N2CCOCC2)nc(OCCc2cnn(C)c2)n1 [Compound 75]
22 | < 50 nM | COCc1cc(-c2ccccc2)n(-c2cc(N3CCOCC3)nc(OCCc3cnn(C)c3)n2)n1 [Compound 77]
23 | < 50 nM | COC(c1ccccc1)c1nc(N2CCOCC2)cc(-n2ccc(-c3ccccc3)n2)n1 (stereo not shown) [Compound 78]
24 | < 50 nM | Cc1cccc(-c2ccn(-c3cc(N4CCOCC4)nc(C(F)(F)F)n3)n2)c1 [Compound 82]
25 | < 500 nM | COc1nc(N2CCOCC2)c(C)c(-n2ccc(-c3cccc(C)c3)n2)n1 [Compound 83]
26 | < 50 nM | OCc1nc(N2CCOCC2)cc(-n2ccc(-c3ccccc3)n2)n1 [Compound 84]
27 | < 500 nM | CNc1nc(N2CCOCC2)cc(-n2nc(-c3ccccc3)cc2C)n1 [Compound 85]
28 | < 500 nM | COc1cc(N2CCOCC2)nc(-n2ccc(-c3cccc(C)c3)n2)n1 [Compound 87]
